In ChEMBL document CHEMBL4673266, “Sulfonamide antibiotics inhibit RNAi by binding to human Argonaute protein 2 PAZ” (Bioorg Med Chem Lett, 2020):
The source made the active and inactive calls. The rule behind the calls is not given here.

Columns and labels:
[1] = target: T1, Protein argonaute-2 (Homo sapiens, UniProt Q9UKV8); assay: Binding affinity to human Argonaut protein 2 PAZ domain assessed as dissociation constant by using isothermal titration microcalorimetry
[2] = target: T1, Protein argonaute-2; assay: Binding affinity to human Argonaut protein 2 PAZ domain assessed as association constant by using isothermal titration microcalorimetry
[3] = target: T1, Protein argonaute-2; assay: Binding affinity to human Argonaut protein 2 PAZ domain assessed as change in enthalpy by isothermal titration microcalorimetry
[4] = target: T1, Protein argonaute-2; assay: Binding affinity to human Argonaut protein 2 PAZ domain assessed as change in entropy by isothermal titration microcalorimetry
[5] = system: HeLa; assay: Inhibition of RNAi in human Hela cells expressing Renilla/firefly luciferase genes and siRNA assessed as siRNA-mediated gene silencing activity at 100 to 500 nM by dual luciferase assay relative to control; format: cell-based; details: dose 100-500 nM
[6] = system: HeLa; assay: Inhibition of RNAi in human Hela cells expressing Renilla/firefly luciferase genes and siRNA assessed as siRNA-mediated gene silencing activity at 500 nM by dual luciferase assay relative to control; format: cell-based

T1 sequence (Q9UKV8 whole entry, the tested form may be a part): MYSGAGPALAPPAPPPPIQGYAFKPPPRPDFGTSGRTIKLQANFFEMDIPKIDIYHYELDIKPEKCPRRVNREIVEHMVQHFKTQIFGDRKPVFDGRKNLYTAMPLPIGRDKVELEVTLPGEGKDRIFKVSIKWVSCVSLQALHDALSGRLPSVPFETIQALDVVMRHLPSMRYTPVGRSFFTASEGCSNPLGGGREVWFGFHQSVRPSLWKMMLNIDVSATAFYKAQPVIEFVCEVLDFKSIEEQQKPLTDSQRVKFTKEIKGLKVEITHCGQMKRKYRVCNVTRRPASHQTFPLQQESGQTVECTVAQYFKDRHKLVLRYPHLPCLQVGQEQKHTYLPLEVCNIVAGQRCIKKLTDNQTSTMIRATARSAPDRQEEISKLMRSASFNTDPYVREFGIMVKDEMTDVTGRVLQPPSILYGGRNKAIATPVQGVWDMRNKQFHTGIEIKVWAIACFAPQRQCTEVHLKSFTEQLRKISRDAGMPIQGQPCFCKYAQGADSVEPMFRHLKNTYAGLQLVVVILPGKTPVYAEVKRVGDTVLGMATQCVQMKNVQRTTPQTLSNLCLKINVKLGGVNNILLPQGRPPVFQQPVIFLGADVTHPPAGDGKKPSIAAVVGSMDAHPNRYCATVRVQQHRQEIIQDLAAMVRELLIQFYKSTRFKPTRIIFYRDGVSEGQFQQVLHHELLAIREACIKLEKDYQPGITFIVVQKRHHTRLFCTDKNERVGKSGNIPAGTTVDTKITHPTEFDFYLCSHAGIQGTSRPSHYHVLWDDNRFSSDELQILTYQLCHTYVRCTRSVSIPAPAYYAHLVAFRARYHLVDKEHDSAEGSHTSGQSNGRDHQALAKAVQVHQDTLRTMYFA

Row | SMILES | Kd [1] [µM] | Ka [2] | deltaH [3] [kcal/mol] | deltaS [4] [cal/mol.K] | inhibition [5] | inhibition [6]
1 | [H]/N=C(/N)NS(=O)(=O)c1ccc(N)cc1 [SULFAGUANIDINE] | 49 |  |  |  |  | 
2 | Cc1cc(NS(=O)(=O)c2ccc(N)cc2)nc(C)n1 [SULFISOMIDINE] | 4.3 | 23 10^4/M | -1.5 | 19.2 | Dose-dependent effect | Active
3 | O=c1ccn([C@@H]2O[C@H](COP(=O)(O)O)[C@@H](O)[C@H]2O)c(=O)[nH]1 |  | 6.6 10^4/M | -0.9 | 18.2 |  | 
4 | N=C(N)NS(=O)(=O)c1ccc(N)cc1 |  | 2 10^4/M | -1.5 | 15.6 | inactive | 
5 | Nc1ccc(S(N)(=O)=O)cc1 |  |  |  | 15.7 | inactive | 
